From paper PMC8518494 (Angewandte Chemie (International Ed. in English), 2021)
Like-named read-outs stand apart in the source and are kept apart here.

How the values were obtained:
Y27A-TbpA = biological target: T1, Y27A-TbpA (Escherichia coli, UniProt P31550, Y27A); assay: Nanopore recording of ligand binding to Y27A-TbpA inside ClyA-AS
T1 sequence (P31550 19-327 Y27A): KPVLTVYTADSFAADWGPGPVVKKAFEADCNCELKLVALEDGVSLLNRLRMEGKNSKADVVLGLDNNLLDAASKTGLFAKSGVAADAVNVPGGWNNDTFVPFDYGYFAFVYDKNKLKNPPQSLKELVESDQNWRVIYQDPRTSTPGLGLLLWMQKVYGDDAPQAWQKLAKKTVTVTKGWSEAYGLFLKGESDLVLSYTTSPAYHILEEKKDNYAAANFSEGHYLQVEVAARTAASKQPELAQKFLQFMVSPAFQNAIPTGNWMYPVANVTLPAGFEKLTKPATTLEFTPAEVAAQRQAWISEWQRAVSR

WT-TbpA [1] = biological target: T2, WT-TbpA (Escherichia coli, UniProt P31550)
T2 sequence (P31550 19-327): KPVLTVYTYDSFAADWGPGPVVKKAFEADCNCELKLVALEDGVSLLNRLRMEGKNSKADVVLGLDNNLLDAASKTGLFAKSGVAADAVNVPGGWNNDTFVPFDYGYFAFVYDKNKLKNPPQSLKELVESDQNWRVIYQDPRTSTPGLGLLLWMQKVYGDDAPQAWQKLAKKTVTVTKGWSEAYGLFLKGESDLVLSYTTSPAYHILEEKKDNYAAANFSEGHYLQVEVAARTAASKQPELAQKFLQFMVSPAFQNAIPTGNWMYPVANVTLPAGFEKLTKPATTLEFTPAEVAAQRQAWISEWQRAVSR

WT-TbpA [2] = biological target: T2, WT-TbpA; assay: biochemical

For `Cc1ncc(C[n+]2csc(CCO[P@](=O)(O)OP(=O)(O)O)c2C)c(N)n1` [ThDP, thiamine diphosphate], the Kd (Y27A-TbpA) was about 2000 nM, the “ΔIres%(ThDP1)” value (Y27A-TbpA; 2 μM ThDP added to cis, first type of event) was 4.0±0.1% and the “ΔIres%(ThDP2)” value (Y27A-TbpA; 2 μM ThDP added to cis, second type of event) was 7.2±0.1%. The “capture frequency for both events” value (Y27A-TbpA; 2 μM ThDP, cis) was 6.5 ± 3 µM⁻¹ s⁻¹, the koff (Y27A-TbpA; read-out: k off(ThDP1)) was 2.9 ± 0.4 s⁻¹ and the koff (Y27A-TbpA; read-out: k off(ThDP2)) was 1.7 ± 0.3 s⁻¹.
In the case of `Cc1ncc(C[n+]2csc(CCOP(=O)(O)O)c2C)c(N)n1` [ThMP, thiamine monophosphate], the “ΔIres%(ThMP1)” value (Y27A-TbpA; 0.1 μM ThMP added to cis, first kind of bound event) is reported as 4.8±0.2%, the “ΔIres%(ThMP2)” value (Y27A-TbpA; 0.1 μM ThMP added to cis, second kind of bound event) is reported as 7.3±0.3% and the kon (Y27A-TbpA; read-out: capture frequency (an approximate k on) for both events) is reported as 1.6e+07 ± 4e+06 M⁻¹ s⁻¹. The koff (Y27A-TbpA; read-out: k off(ThMP1)) was 2.3 ± 0.4 s⁻¹ and the koff (Y27A-TbpA; read-out: k off(ThMP2)) was 2 ± 0.2 s⁻¹.
With `Cc1ncc(C[n+]2csc(CCO)c2C)c(N)n1` [thiamine, Thiamine] the Kd (Y27A-TbpA; Kd app(cis), thiamine added to cis, Hill curve fit to bound fraction) was 23.1 ± 0.1 nM, the Kd (Y27A-TbpA; Kd app(trans), thiamine added to trans) was 91.1 ± 0.4 nM and the “difference in apparent Kd between cis and trans” value (Y27A-TbpA; Y27A-TbpA) was 4 fold. The “difference in k on rates between cis and trans” value (Y27A-TbpA; Y27A-TbpA) was 4 fold, the “ΔIres%(thiamine)” value (Y27A-TbpA; Y27A-TbpA 15 nM cis, 4 μM thiamine added to cis, −45 mV) was 6.9±0.6% and the “Ires%(thiamine), closed state” value (Y27A-TbpA; Y27A-TbpA, thiamine-bound state) was 48.4±0.9%. It also gave a koff (Y27A-TbpA; read-out: k off(cis)) of 1.8 ± 0.3 s⁻¹, a koff (Y27A-TbpA; read-out: k off(trans)) of 1.7 ± 0.1 s⁻¹ and a kon (Y27A-TbpA; read-out: k on(cis)) of 6.9e+07 ± 9e+06 M⁻¹ s⁻¹. For the same compound, the kon (Y27A-TbpA; read-out: k on(trans)) was 1.4e+07 ± 3e+06 M⁻¹ s⁻¹, the “effect of addition of thiamine to the trans chamber” value (Y27A-TbpA; thiamine added to trans, Y27A-TbpA in cis) was “induced thiamine events” and the Hill coefficient (Y27A-TbpA; thiamine, cis and trans) was 1. For the same compound, the “ΔIres%(thiamine)” value (WT-TbpA [1]; WT-TbpA 15 nM cis, 4 μM thiamine added to cis, −45 mV, 150 mM NaCl, 15 mM Tris.HCl pH 7.5) was 3.1±0.6%, the “Ires%(thiamine), closed state” value (WT-TbpA [1]; WT-TbpA, thiamine-bound state) was 45.9±0.8% and the “effect of addition of thiamine to the trans solution” value (WT-TbpA [1]; thiamine added to trans, WT-TbpA in cis) was “did not elicit additional current blockades”. For the same compound, the Kd (WT-TbpA [2]) was 67 ± 5 nM.
